# From PubChem BioAssay (NCI)
# Several values for one entry are separate records, joined by “and”; a condition that tells them apart may be missing. Equal values may be shown once.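 Dose response: 5 concentrations. Exposure: 48 h. Format: 96-well plates. Endpoint: linear interpolation; highest concentration if not reached. The concentration for 50% growth inhibition is given as GI50. TGI: concentration producing complete growth inhibition.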
# How the values were obtained:
# Assay in all cases: NCI tumour cell line growth inhibition, 48 h
# SF-268 CNS = tested on: SF-268 CNS
# NCI-H522 lung = tested on: NCI-H522 lung
# HOP-92 NSCLC = tested on: HOP-92 NSCLC
# MDA-MB-435 = tested on: MDA-MB-435
# MOLT-4 leukemia = tested on: MOLT-4 leukemia
# NCI-H23 lung = tested on: NCI-H23 lung
# SK-OV-3 ovarian = tested on: SK-OV-3 ovarian
# MCF7 breast = tested on: MCF7 breast
# OVCAR-8 ovarian = tested on: OVCAR-8 ovarian
# NCI/ADR-RES ovarian = tested on: NCI/ADR-RES ovarian
Compound,TGI (SF-268 CNS) [µM],TGI (NCI-H522 lung) [µM],TGI (HOP-92 NSCLC),TGI (MDA-MB-435),TGI (MOLT-4 leukemia),TGI (NCI-H23 lung),TGI (SK-OV-3 ovarian),TGI (MCF7 breast) [µM],TGI (OVCAR-8 ovarian),GI50 (SF-268 CNS),GI50 (NCI-H522 lung) [µM],GI50 (NCI/ADR-RES ovarian),TGI (NCI/ADR-RES ovarian),GI50 (HOP-92 NSCLC),GI50 (MDA-MB-435),GI50 (OVCAR-8 ovarian),GI50 (NCI-H23 lung),GI50 (SK-OV-3 ovarian) [µM],GI50 (MCF7 breast) [µM],GI50 (MOLT-4 leukemia)
CC(O)CNC1=CC(=O)C(=O)c2ccccc21 (stereo unspecified),33.9,41.8,53.3 µM,23.9 µM,59.9 µM,39.1 µM,> 100 µM,48.7,–,–,–,–,–,–,–,–,–,–,–,–
O=C1[C@@H](c2ccc(Cl)cc2)[C@H]2CC=C[C@H]2N1O,> 100,> 100,–,–,> 100 µM,> 100 µM,> 100 µM,–,> 100 µM,–,–,–,–,–,–,–,–,–,–,–
CC(CO)[C@H]1OC(=O)C=C2[C@@]13O[C@@H]3[C@H]1OC(=O)[C@@]3(C)[C@H]4O[C@H]4C[C@@]2(C)[C@@H]13 (stereo partly specified),> 25.8,5.38,> 26.9 µM,18.4 µM,3.65 µM,> 36.6 µM,> 57 µM,8.05,9.02 µM,–,–,–,–,–,–,–,–,–,–,–
Cc1ccc(C(=O)/C(=C/c2ccc([N+](=O)[O-])cc2)S(=O)Cc2ccccc2)cc1 (stereo unspecified),3.72,2.9,3.22 µM,3.04 µM,–,5.25 µM,12.5 µM,2.2,3.23 µM,1.71 µM,1.46,2.46 µM,> 100 µM,1.41 µM,1.47 µM,1.36 µM,1.86 µM,3.46,0.372,–
CC1(C)C(=O)C(O)=CC2C1=CCC1C2(C)C(=O)CC2(C)C(C(C)(O)C(=O)CC(O)C(C)(C)O)C(O)CC12C (stereo unspecified),9.76,8.61,4.56 µM,–,> 81.8 µM,67.1 µM,28.9 µM,–,> 100 µM,–,–,–,–,–,–,–,–,–,–,–
COC(=O)C1=CCON(c2ccccc2)C1c1ccccc1 (stereo unspecified),> 100,93.8,–,–,> 100 µM,> 100 µM,> 100 µM,–,–,–,–,–,–,–,–,–,–,–,–,–
COc1cc(-c2csc(NC(=O)c3cc(C(F)(F)F)cc(C(F)(F)F)c3)n2)cc(OC)c1OC,> 100,5.05,4.11 µM,> 100 µM,4.98 µM,–,9.76 µM,> 100,> 100 µM,3.64 µM,1.4,–,–,0.848 µM,2.67 µM,2.77 µM,–,2.91,2.16,1.92 µM
O=c1oc2ccccc2c(O)c1C=NC(=S)c1ccncc1,–,–,> 100 µM,> 100 µM,> 100 µM,> 100 µM,> 100 µM,> 100,> 100 µM,–,–,–,> 100 µM,–,–,–,–,–,–,–
CC(C)N(C(C)C)[PH+]1O[PH+](N(C(C)C)C(C)C)O[PH+](N(C(C)C)C(C)C)O[PH+](N(C(C)C)C(C)C)O[PH+](N(C(C)C)C(C)C)O1.[C-]#[O+].[C-]#[O+].[C-]#[O+].[C-]#[O+].[C-]#[O+].[C-]#[O+].[C-]#[O+].[Cr].[Cr] (stereo unspecified),> 100,> 100,> 100 µM,–,> 100 µM,> 100 µM,> 100 µM,–,> 100 µM,> 100 µM,> 100,–,–,> 100 µM,–,> 100 µM,> 100 µM,> 100,–,> 100 µM
COc1ccc(-n2nnc3c(sc4ccccc43)c2=O)cc1,> 100,> 100,–,> 100 µM,> 100 µM,> 100 µM,–,> 100,–,> 100 µM,> 100,> 100 µM,> 100 µM,–,> 100 µM,–,> 100 µM,–,> 100,> 100 µM
Cc1c(C)c2cc3c(=O)ccoc3c(C)c2oc1=O,> 100,> 100,–,–,92.7 µM,> 100 µM,> 100 µM,–,> 100 µM,–,–,–,–,–,–,–,–,–,–,–
O=C(CCc1nc(=S)[nH][nH]1)NC12CC3CC(CC(C3)C1)C2,–,> 100,> 100 µM,–,–,> 100 µM,> 100 µM,–,> 100 µM,–,–,–,–,–,–,–,–,–,–,–
CC(C)N(C(=O)C12C3C4C1C1C2C3C41C(O)C(C)(C)C)C(C)C (stereo unspecified),> 50,> 50,> 50 µM,–,> 50 µM,–,> 50 µM,–,> 50 µM,–,–,–,–,–,–,–,–,–,–,–
CC(C)c1cccc(C(C)C)c1NC(=O)C(=O)C(C(=O)c1ccccc1-c1ccccc1)C1OC(=O)c2ccccc21 (stereo unspecified),61.5,30.5,–,–,74.1 µM,3.32 µM,–,–,35 µM,–,–,–,–,–,–,–,–,–,–,–
CC(C)c1ccc2nc3ccc(C(=O)NCCN(C)C)cn3c(=O)c2c1,36.3,29.3,–,–,49.8 µM,33.9 µM,33.5 µM,30.8,39.9 µM,–,–,–,62.9 µM,–,–,–,–,–,–,–
COc1ccc(C2C(Cl)C(=O)N2n2cnc3ccccc3c2=O)cc1OC (stereo unspecified),> 100,> 100,–,–,> 100 µM,> 100 µM,> 100 µM,–,> 100 µM,–,–,–,–,–,–,–,–,–,–,–
Clc1ccc([O][In]([O]c2ccc(Cl)cn2)[O]c2ccc(Cl)cn2)nc1,> 100,–,–,–,–,> 100 µM,> 100 µM,–,> 100 µM,> 100 µM,–,–,–,–,–,> 100 µM,> 100 µM,64.4,–,–
COC(=O)c1nc(NN)[nH]c(=O)c1CCCCCc1c(C(=O)OC)[nH]c(NN)cc1=O,> 100,> 100,> 100 µM,–,> 100 µM,> 100 µM,> 100 µM,–,> 100 µM,–,–,–,–,–,–,–,–,–,–,–
C=C(C)C1CC2C(C)=C(OC(C)=O)C1n1c(=O)c3cc4ccccc4cc3c(=O)n12 (stereo unspecified),> 100,> 100,> 100 µM,–,> 100 µM,> 100 µM,> 100 µM,–,> 100 µM,–,–,–,–,–,–,–,–,–,–,–
O=C1c2ccccc2N2OC3(N4CCCC4)CCCC3C12c1ccccc1 (stereo unspecified),> 100,> 100,> 100 µM,–,> 100 µM,> 100 µM,> 100 µM,–,> 100 µM,–,–,–,–,–,–,–,–,–,–,–
CN1C2CC(C#N)C1C=CC2=O (stereo unspecified),> 100,–,31.4 µM and > 100 µM,36.7 µM and > 100 µM,68.7 µM and > 100 µM,48.6 µM and > 100 µM,62.4 µM and > 100 µM,> 100,70.9 µM and > 100 µM,27.2 µM and > 100 µM,–,25.7 µM and > 100 µM,82.9 µM and > 100 µM,14.5 µM and 62.3 µM,16.9 µM and 89.2 µM,24.5 µM and > 100 µM,16.2 µM and 60.1 µM,–,–,15.7 µM and > 100 µM
